Assay results from patent US20020127228A1, “PGT and apoptosis” (WELFIDE CORPORATION, priority 1998, published 2002).
“Also recorded” adds a separate entry of the source.

Tests used:
NRK52E cells = test: Apoptosis induced by NO donor GSNO in NRK52E kidney cells; type: cell-based, rat; settings: for Effect on apoptosis in kidney cells (in words): NO donor GSNO
Protocol: 1) Apoptosis was induced by NO (nitrogen monoxide) in kidney cells. NRK52E cells, which are established from a rat renal tubule epithelial cell line, mainly derived from distal were cultured for 24 hours with a chamber slide that was coated with type-I collagen. Afterwards, the cultured medium was changed to a serum-free medium, and apoptosis was induced by addition of NOC12 (0.4 mM) or S-nitroso L-glutathione (GSNO: 1 mM), which are NO donors.
4) Inhibitory effect of PGE1 to the induction of apoptosis in kidney cells was investigated PGE1 was added simultaneously with the addition of a NO donor to a final concentration of 1 or 10 μM. After 24 hrs, cells were fixed with a 1% glutaraldehyde solution and stained with Hoechst 33342. Three visual fields were selected arbitrarily per slide, and the ratio of the cells count where nuclear fragmentation and condensation appeared was calculated with respect to the total cells in the field (magnification: 400x). The n was 5.
5) The relationship between PGT inhibitors and kidney cell apoptosis induced by GSNO was examined. With a final concentration of BrCG, which is a PGT inhibitor, of 60 μM, manners other than simultaneous addition with GSNO and PGE1 were in accordance with the aforementioned ones in 4). The PGE1 final concentration was 1 μM. The n was 3.
1) Drugs having suppressing activity on apoptosis inducted in kidney cells by an NO donor were investigated. PGK1 and bicyclo PGE2 were used as test drugs, but other manners were in accordance with Experiment 8. The final concentration of the test drugs was 1 μM. The n was 5.
2) It was investigated the effects of a PGT inhibitor on the apoptosis-suppressing activity of PGK1 and bicyclo PGE2 in kidney cells. With a final concentration of BrCG, which is a PGT inhibitor, of 60 μM, manners other than simultaneous addition of GSNO and test drugs were in accordance with the aforementioned methods in 1). The n was 4.

PGT = molecular target: T1, PGT (Rattus norvegicus, UniProt Q00910); test: Uptake of tritium-labelled PGE1 into differentiated PC12 cells through PGT; type: cell-based
T1 construct: endogenous in cells; host or cells: differentiated PC12 cells
Protocol: 1) Differentiated PC12 cells and tritium-labelled PGE1 (added concentration: 0.1 μM) were subjected to 10 mins of incubation at 37° C. Afterwards, the cells were washed with ice-cold phosphate buffered saline containing 5 g/l of bovine serum albumin and next washed with ice-cold phosphate buffered saline. Then, radioactivity was measured. The amount of PGE1 uptake into PC12 cells was calculated.
2) Bromcresol green (hereinafter noted as “BrCG”), which is a PGT inhibitor, was placed together in the culture medium at the addition of PGE1. Afterwards, treatment was conducted in the same manner as mentioned in 1).
3) The antisense oligonucleotide specific to PGT cDNA was designed as follows:
Moreover, said antisense was thioate modified. Using Lipofectin (Gibco), PC12 underwent transfection during 2 days prior to the addition of PGE1. Afterwards, treatment was conducted in the same manner as mentioned in 1).

SAPK/JNK = SAPK/JNK activation in PC12 cells after NGF withdrawal, Western blot; type: cell-based, rat; settings: added with PGE1
Protocol: 4) Intercellular signals via SAPK/JNK Stress-activated protein kinase/Jun N-terminal kinase (abbreviated SAPK/JNK) is associated with apoptosis induction. Thus, intercellular signals within cells via SAPK/JNK were investigated based upon effects with respect to variations in SAPK/JNK activity.
The present experiment was performed with Western blot analysis. Individual additives were added to cell culturing medium for PC12 cells in accordance with the aforementioned experiment. Culturing was performed for 1-4 hrs after withdrawal of NGF. PC12 cells were lysed with a buffer solution, centrifuged, and the supernatant of cell lysate was prepared. After said supernatant was incubated with JNK 1 polyclonal antibodies (Santa Cruz Biotechnology) at 4° C. for 1 hr. Protein A sepharose was added to it. The resultant was incubated for 1 hr and the immunoprecipitate as described below was provided. […] of cell lysate was conducted with SDS-PAGE electrophoresis, and transferred to a nylon membrane (Amersham Pharmacia Biotech). Blotting of phosphorylated (active) JNK antibodies (Santa Cruz Biotechnology) was performed with this membrane, and bands were detected in accordance with the instruction manual. Intercellular signals within cells were amplified by chemiluminescence and auto radioactivity methods (FCL, Amersham Pharmacia Biotech).

[1] = test system: rat cerebral cortical neurons; test: Apoptosis induced by amyloid beta peptide in rat cerebral cortical neurons, Hoechst 33342; type: cell-based; settings: for Inhibition of apoptosis induction (%): Experiment 7, test drug added with Aged-Aβ25-35
Protocol: The cortex region of embryonic day 17 or 18 rat cerebrum was extracted on ice. Cells were dispersed using a neuron dispersal solution (Sumilon) after sectioning. Afterwards, cells were dispersed to a density of 1.5×10^5 cells/cm^2 in a culturing flask that was coated with polyethyleneimine beforehand. After 4 days of culturing, the following experiment was provided. Therefore, as the culture medium, Neurobasal medium (Gibco) adding with B27 supplement (1/50 volume), 2-mercaptoethanol (27.5 μM), L-glutamic acid (25 μM), and glutamine (0.5 mM) was used.
Amyloid beta peptide 25-35 (Aβ25-35) was dissolved in distilled water to a concentration of 1 mM, incubated for 1 week at about 37° C., and Aged-Aβ25-35 was prepared. The induction of apoptosis in neuron was performed by the replacement of the aforementioned culture medium (with the exception of L-glutamicacid) containing 10 μM Aged-Aβ25-35.
4) It was investigated that the suppressing effect of PGE1 on apoptosis induced by amyloid beta peptide. After dissolution of PGE1 in ethanol, when the aforementioned 2) Aged-Aβ25-35 was added to the culture medium, simultaneously PGE1 solution was added to it. The final concentration thereof was 1 μM.
Cells were washed with PBS (−) at 24 hrs after induction of apoptosis and fixed for 30 mins at room temperature using a 1% glutaraldehyde solution (in PBS). Next, cell were washed with PBS (−) two times and followed by incubation with 1 mM Hoechst 33342 solution (in PBS) for 2 mins. Afterwards, observation of nuclear chromatin morphology was conducted using a fluorescence microscope with 4 arbitrary visual fields. Normal cells and apoptotic cells (cell where chromatin fragmentation or condensation was appeared) were counted, and the ratio was calculated as the incidence of apoptosis. The n was 3.
6) The relationship between PGT inhibitors and apoptosis induced by amyloid beta peptide was investigated. BrCG, which is a PGT inhibitor, with a final concentration of 60 μM was added simultaneously with PGE1 but other manners were in accordance with the aforementioned ones in 1)-5).
It was investigated that the influence of PGT antisense on the inhibitory effect of PGE1 against apoptosis induced by amyloid beta peptide. PGT antisense was used as it is with regard to the oligonucleotide in Experiment 3. The addition concentration thereof was 1.5 μM. Incidence of apoptosis was performed in accordance with Experiment 5. Then was 3.
1) Drugs having an inhibitory activity against induction of apoptosis by amyloid beta peptide were investigated. After dissolving test drugs (PGE1, PGK1, PGK2, and bicyclo PGE2) in ethanol, when Aged-Aβ25-35 was added to the culture medium, simultaneously test drug solution were added to it. But other manners were in accordance with Experiment 5. Ratio of normal cells and apoptotic cells allowed calculation of the rate of inhibition of apoptosis induction.

[2] = Hypotensive effect in anesthetized normal rats, mean blood pressure; type: in vivo, rat; parameters: Decrease in blood pressure: unit not given here; settings: for Decrease in blood pressure: 100 μg/kg body weight into caudal artery, mean blood pressure before and after, n 3; for Hypotensive effect (in words): dose that suppresses apoptosis sufficiently
Protocol: 2) The hypotensive effect of the test drugs was examined. After anesthetizing normal rats (male, body weight of about 300 g) with intraperitoneal administration of Nembutal, the dorsal region was fixed. Next, a cannula was inserted in the carotid artery and blood pressure was measured through a transducer (Nihon Kohden Corporation); simultaneous recording was made in combination with a polygraph (Nihon Kohden Corporation). After dissolving the test drugs in ethanol, and diluted (x200) with saline. Administration was given in the caudal artery in a dose of 100 μg/kg body weight. The mean blood pressure (MBP) was measured. The decrease in blood pressure was calculated from the measured values before and after administration. The n was 3 per group.

[3] = test system: differentiated PC12 cells; test: Induction of apoptosis by PGT antisense in differentiated PC12 cells, TUNEL staining; type: cell-based, rat
Protocol: 1) Rat adrenal pheochromocytoma PC12 cells (obtained by: ATCC; importer: Dainippon Pharmaceutical) was cultured in a Neurobasal culture medium containing mouse β NGF (100 ng/ml), N2 supplement (1%), and TIP (5 μg/ml transferrin, 5 μg/ml insulin, and 10 ng/ml progesterone). Differentiation of neuron was performed.
2) Then, antisense solution prepared in Example 6 is added (final concentration: 600 nM) and cultured for 2 days. As a negative control, Lipofectin in alone is added in the same manner and cultured for the same period of time. Apoptosis detection is performed by TUNEL staining after cell fixation (room temperature for 30 min) with a 10% neutral formalin buffer solution. Observation was made from 6 arbitrary visual fields using a light microscope. Total cells and TUNEL (apoptosis)—positive cells were counted, and the incidence of apoptosis was calculated.

[4] = Table 13, GSNO, test drug 1 μM, n 5
[5] = Tables 14 and 15, GSNO, test drug alone, n 4

| Compound | Effect on apoptosis-suppressing activity of the test drug in kidney cells (in words) (NRK52E cells; BrCG 60 μM, GSNO) | Amount of PGE1 uptake (PGT; PGE1 0.1 μM with BrCG 1 μM) | Amount of PGE1 uptake (PGT; PGE1 0.1 μM with BrCG 1 μM (second row, printed so)) | Effect on PGE1 suppression of SAPK/JNK activation (in words) (SAPK/JNK) | Effect on PGE1 inhibition of amyloid beta peptide-induced apoptosis (in words) ([1]; BrCG 60 μM with PGE1) | Effect on apoptosis in kidney cells (in words) (NRK52E cells) | Incidence of apoptosis (%) (NRK52E cells; [4]) | Incidence of apoptosis (%) (NRK52E cells; [5]) | Decrease in blood pressure [2] | Hypotensive effect (in words) [2] | Effect on apoptosis induced by amyloid beta peptide (in words) [1] | Inhibition of apoptosis induction (%) [1] | Amount of PGE1 uptake (PGT; PGE1 0.1 μM, antisense 0.5 μM transfected 2 days before) | Amount of PGE1 uptake (PGT; PGE1 0.1 μM, antisense 1.5 μM transfected 2 days before) | TUNEL-positive cells (%) ([3]; antisense 600 nM, cultured 2 days) | Induction of apoptosis (in words) ([3]; antisense addition) |
| --- | --- | --- | --- | --- | --- | --- | --- | --- | --- | --- | --- | --- | --- | --- | --- | --- |
| Cc1c(C2(c3cc(Br)c(O)c(Br)c3C)OS(=O)(=O)c3ccccc32)cc(Br)c(O)c1Br [BrCG, Bromcresol green] | inhibited apoptosis-suppressing activity by PGE1; also recorded: partially inhibited apoptosis-suppressing effect | 60 ± 15 fmol/mg protein/10 mins | 20 ± 8 fmol/mg protein/10 mins | inhibited PGE1-suppressing effect | inhibited said effect of PGE1 |  |  |  |  |  |  |  |  |  |  |  |
| CCCCC[C@H](O)/C=C/[C@H]1C(=O)CC(=O)[C@@H]1CCCCCCC(=O)O [PGK1] |  |  |  |  |  | suppressed apoptosis induced by GSNO in kidney cells | 8 ± 1 % | 8 ± 1% | −5 | substantially causes no decrease in blood pressure | displayed activity to suppress apoptosis of neurons | 45.4% |  |  |  |  |
| CCCCC[C@H](O)/C=C/[C@H]1C(=O)CC(=O)[C@@H]1C/C=C\CCCC(=O)O [PGK2] |  |  |  |  |  |  |  |  | +2 | substantially causes no decrease in blood pressure | displayed activity to suppress apoptosis of neurons | 36.2% |  |  |  |  |
| CCCCC1C(=O)CC[C@H]2[C@@H]1CC(=O)[C@@H]2C/C=C\CCCC(=O)O (stereo partly shown) [bicyclo PGE2] |  |  |  |  |  | suppressed apoptosis induced by GSNO in kidney cells | 6 ± 1 % | 9 ± 2% | 0 | substantially causes no decrease in blood pressure | displayed activity to suppress apoptosis of neurons | 40.6% |  |  |  |  |
| PGT antisense: antisense oligonucleotide specific to PGT, 5′-GGCTTGAGCAGGAGCCCCAT-3′, thioate modified, used with Lipofectin (all phosphorothioate, sugars by position and methylation of C not given here) |  |  |  | inhibited PGE1-suppressing effect |  |  |  |  |  |  |  |  | 56 ± 17 fmol/mg protein/10 mins | 14 ± 14 fmol/mg protein/10 mins | 12.9 ± 1.1% | apoptosis have been induced |
